Data reported in US9598433B2, “Hepatitis C virus inhibitors” (BRISTOL-MYERS SQUIBB COMPANY, priority 2012, dated 2017).
Read-outs that look alike come from different tables or passages of the source.

Columns and labels:
[1] = system: HCV genotype 1a (H77 strain) replicon in HUH-7 cells; experiment: HCV replicon luciferase reporter assay, genotype 1a; assay type: cell-based; conditions: Hepatitis C virus, 72 h, genotype 1a replicon, 3 days incubation
From the text: (§1) An HCV replicon whole cell system was established as described by Lohmann V, Korner F, Koch J, Herian U, Theilmann L, Bartenschlager R., Science 285(5424):110-3 (1999) and modified to introduce a luciferase reporter, as first described by Krieger et al (Krieger N, Lohmann V, and Bartenschlager R, J. Virol. 75(10):4614-4624 (2001)). CDNA encoding a humanized form of the Renilla luciferase gene and a linker sequence fused directly to the 3′-end of the luciferase gene were introduced into the replicon construct using an Ascl restriction site located in core, directly upstream of the neomycin marker gene. The adaptive mutation at position 1179 (serine to isoleucine) was also introduced (Blight K J, Kolykhalov, A A, Rice, C M, Science 290(5498):1972-1974). A stable cell line constitutively expressing this HCV replicon construct was generated by first linearizing plasmid DNAs with ScaI. RNA transcripts were synthesized in vitro using the T7 MegaScript transcription kit (Ambion, Austin, Tex.) according to manufacturer's directions. In vitro transcripts of the cDNA were transfected into the human hepatoma cell line, HUH-7. […] Resulting cell lines were characterized for positive and negative strand RNA production and protein production over time.
A stable HCV replicon luciferase reporter cell line representing the genotype 1a H77 strain (Yanagi M, Purcell R H, Emerson S U, et al. Transcripts from a single full-length cDNA clone of hepatitis C virus are infectious when directly transfected into the liver of a chimpanzee. Proc Natl Acad Sci USA 1997; 94(16):8738-8743) was generated as described previously for the genotype 1b(Con1) replicon luciferase cell line. The replicon construct was modified by introducing mutations were introduced into the genes encoding the NS3 helicase domain (proline replaced by leucine at position 1496) and NS5A (serine to isoleucine at position 2204) to improve replication in cell culture.
(§2) HCV replicon luciferase assays were developed to monitor the inhibitory effects of compounds described in the disclosure on HCV genotypes 1a and 1b viral replication. HUH-7 cells, constitutively expressing the HCV replicon, were grown in Dulbecco's Modified Eagle Media (DMEM) (Gibco-BRL) containing 10% Fetal calf serum (FCS) (Sigma) and 1 mg/mL G418 (Gibco-BRL). Compounds were serially diluted 3 folds in DMSO for a twenty-point titration and subsequently transferred to sterile 384-well tissue-culture treated plates (Corning cat #3571). The plates were then seeded with 50 μL of cells at a density of 3.0×10^3 cells/well in DMEM containing 4% FCS (final DMSO concentration at 0.5%). After 3 days incubation at 37° C., cells were analyzed for Renilla Luciferase activity using the EnduRen as substrate (Promega cat #E6485). The EnduRen substrate was diluted in DMEM and then added to the plates to a final concentration of 7.5 μM. The plates were incubated for 2 hrs at 37° C. and then read immediately for 30 seconds with Viewlux Imager (PerkinElmer) using a luminescence program. To assess cytotoxicity of compounds, CC50 values were generated by multiplexing the EnduRen-containing plates with Cell Titer-Blue (Promega, cat # G8082). Cell-Titer Blue (3 μL) was added to each well and incubated for 8 hrs at 37° C. The fluorescence signal from each well was read, with an excitation wavelength at 525/10 nm and an emission wavelength of 598/10 nm, using the Viewlux Imager.
(§3) The EC50 values for compounds were calculated by using a four-parameter logistic equation: y=A+((B−A)/(1+((C/x)^D))), where A and B denotes minimal and maximal % inhibition, respectively, C is the EC50, D is the hill slope and x represents compound concentration.

[2] = system: HCV genotype 1b (Con1) replicon in HUH-7 cells; experiment: HCV replicon luciferase reporter assay, genotype 1b; assay type: cell-based; conditions: Hepatitis C virus, 72 h, genotype 1b replicon, 3 days incubation
From the text: as §1, §2, §3

Compound: CC[C@@H]1O[C@H](C)CC/C=C\[C@@H]2C[C@@]2(C(=O)NS(=O)(=O)C2(C)CC2)NC(=O)[C@@H]2C[C@@H](Oc3nccc4cc(OC)c(F)cc34)CN2C(=O)[C@H]1NC(=O)OC(C)(C)C(F)(F)F [Compound 1001]
- EC50 ([1]; read-out: LE_1a (EC50)): 1.26 nM
- EC50 ([1]; read-out: LE_1a (EC50, range)): 1.01 to 5 nM
- EC50 ([2]; read-out: LE_1b (EC50)): 0.47 nM
- EC50 ([2]; read-out: LE_1b (EC50, range)): 0.1 to 0.5 nM

Compound: CC[C@@H]1O[C@H](C)CC/C=C\[C@@H]2C[C@@]2(C(=O)NS(=O)(=O)C2(C)CC2)NC(=O)[C@@H]2C[C@@H](Oc3nc(OC)cc4cc(OC)ccc34)CN2C(=O)[C@H]1NC(=O)OC(C)(C)C(F)(F)F [Compound 1002, 1,1,1-trifluoro-2-methylpropan-2-yl ((2R,6S,7S,9R,13aS,14aR,16aS,Z)-2-((3,6-dimethoxyisoquinolin-1-yl)oxy)-7-ethyl-9-methyl-14a-(((1-methylcyclopropyl)sulfonyl)carbamoyl)-5,16-dioxo-2,3,5,6,7,9,10,11,13a,14,14a,15,16,16a-tetradecahydro-1H-cyclopropa[i]pyrrolo[1,2-e][1,5,8]oxadiazacyclopentadecin-6-yl)carbamate]
- EC50 ([1]; read-out: LE_1a (EC50, range)): 0.51 to 1 nM
- EC50 ([2]; read-out: LE_1b (EC50, range)): 0.1 to 0.5 nM

Compound: CC[C@@H]1O[C@H](C)CC/C=C\[C@@H]2C[C@@]2(C(=O)NS(=O)(=O)C2(C)CC2)NC(=O)[C@@H]2C[C@@H](Oc3ncc(OC)c4ccccc34)CN2C(=O)[C@H]1NC(=O)OC(C)(C)C(F)(F)F [Compound 1003]
- EC50 ([1]; read-out: LE_1a (EC50, range)): 0.51 to 1 nM
- EC50 ([2]; read-out: LE_1b (EC50, range)): 0.1 to 0.5 nM

Compound: CC[C@@H]1O[C@H](C)CC/C=C\[C@@H]2C[C@@]2(C(=O)NS(=O)(=O)C2CC2)NC(=O)[C@@H]2C[C@@H](Oc3ncc(OC)c4ccccc34)CN2C(=O)[C@H]1NC(=O)OC(C)(C)C(F)(F)F [Compound 1004, 1,1,1-trifluoro-2-methylpropan-2-yl ((2R,6S,7S,9R,13aS,14aR,16aS,Z)-14a-((cyclopropylsulfonyl)carbamoyl)-7-ethyl-2-((4-methoxyisoquinolin-1-yl)oxy)-9-methyl-5,16-dioxo-2,3,5,6,7,9,10,11,13a,14,14a,15,16,16a-tetradecahydro-1H-cyclopropa[i]pyrrolo[1,2-e][1,5,8]oxadiazacyclopentadecin-6-yl)carbamate]
- EC50 ([1]; read-out: LE_1a (EC50, range)): 0.51 to 1 nM
- EC50 ([2]; read-out: LE_1b (EC50, range)): 0.1 to 0.5 nM

Compound: CC[C@@H]1OCCC/C=C\[C@@H]2C[C@@]2(C(=O)NS(=O)(=O)C2(C)CC2)NC(=O)[C@@H]2C[C@@H](Oc3nccc4cc(OC)ccc34)CN2C(=O)[C@H]1NC(=O)OC(C)(C)C(F)(F)F [Compound 1005]
- EC50 ([1]; read-out: LE_1a (EC50, range)): 1.01 to 5 nM
- EC50 ([2]; read-out: LE_1b (EC50, range)): 0.51 to 1 nM

Compound: CC[C@@H]1O[C@H](C)CC/C=C\[C@@H]2C[C@@]2(C(=O)NS(=O)(=O)C2(C)CC2)NC(=O)[C@@H]2C[C@@H](Oc3nccc4cc(OC)ccc34)CN2C(=O)[C@H]1NC(=O)OC(C)(C)C(F)(F)F [Compound 1006]
- EC50 ([1]; read-out: LE_1a (EC50, range)): 1.01 to 5 nM
- EC50 ([2]; read-out: LE_1b (EC50, range)): 0.1 to 0.5 nM

Compound: CC[C@@H]1O[C@H](C)CC/C=C\[C@@H]2C[C@@]2(C(=O)NS(=O)(=O)C2CC2)NC(=O)[C@@H]2C[C@@H](Oc3nccc4cc(OC)ccc34)CN2C(=O)[C@H]1NC(=O)OC(C)(C)C(F)(F)F [Compound 1007, 1,1,1-trifluoro-2-methylpropan-2-yl ((2R,6S,7S,9R,13aS,14aR,16aS,Z)-14a-((cyclopropylsulfonyl)carbamoyl)-7-ethyl-2-((6-methoxyisoquinolin-1-yl)oxy)-9-methyl-5,16-dioxo-2,3,5,6,7,9,10,11,13a,14,14a,15,16,16a-tetradecahydro-1H-cyclopropa[i]pyrrolo[1,2-e][1,5,8]oxadiazacyclopentadecin-6-yl)carbamate]
- EC50 ([1]; read-out: LE_1a (EC50, range)): 1.01 to 5 nM
- EC50 ([2]; read-out: LE_1b (EC50, range)): 0.51 to 1 nM

Compound: CC[C@@H]1O[C@H](C)CC/C=C\[C@@H]2C[C@@]2(C(=O)NS(=O)(=O)C2CC2)NC(=O)[C@@H]2C[C@@H](Oc3nc(OC)cc4cc(OC)ccc34)CN2C(=O)[C@H]1NC(=O)OC(C)(C)C(F)(F)F [Compound 1008, 1,1,1-trifluoro-2-methylpropan-2-yl ((2R,6S,7S,9R,13aS,14aR,16aS,Z)-14a-((cyclopropylsulfonyl)carbamoyl)-2-((3,6-dimethoxyisoquinolin-1-yl)oxy)-7-ethyl-9-methyl-5,16-dioxo-2,3,5,6,7,9,10,11,13a,14,14a,15,16,16a-tetradecahydro-1H-cyclopropa[i]pyrrolo[1,2-e][1,5,8]oxadiazacyclopentadecin-6-yl)carbamate]
- EC50 ([1]; read-out: LE_1a (EC50)): 0.41 nM
- EC50 ([1]; read-out: LE_1a (EC50, range)): 0.1 to 0.5 nM
- EC50 ([2]; read-out: LE_1b (EC50)): 0.28 nM
- EC50 ([2]; read-out: LE_1b (EC50, range)): 0.1 to 0.5 nM

Compound: CC[C@@H]1OCCC/C=C\[C@@H]2C[C@@]2(C(=O)NS(=O)(=O)C2(C)CC2)NC(=O)[C@@H]2C[C@@H](Oc3nccc4cc(OC)c(F)cc34)CN2C(=O)[C@H]1NC(=O)OC(C)(C)C(F)(F)F [Compound 1009]
- EC50 ([1]; read-out: LE_1a (EC50, range)): 1.01 to 5 nM
- EC50 ([2]; read-out: LE_1b (EC50, range)): 1.01 to 5 nM

Compound: CC[C@@H]1OCCC/C=C\[C@@H]2C[C@@]2(C(=O)NS(=O)(=O)C2(C)CC2)NC(=O)[C@@H]2C[C@@H](Oc3nc(OC)cc4cc(OC)ccc34)CN2C(=O)[C@H]1NC(=O)OC(C)(C)C(F)(F)F [Compound 1010, 1,1,1-trifluoro-2-methylpropan-2-yl ((2R,6S,7S,13aS,14aR,16aS,Z)-2-((3,6-dimethoxyisoquinolin-1-yl)oxy)-7-ethyl-14a-(((1-methylcyclopropyl)sulfonyl)carbamoyl)-5,16-dioxo-2,3,5,6,7,9,10,11,13a,14,14a,15,16,16a-tetradecahydro-1H-cyclopropa[i]pyrrolo[1,2-e][1,5,8]oxadiazacyclopentadecin-6-yl)carbamate]
- EC50 ([1]; read-out: LE_1a (EC50, range)): 0.51 to 1 nM
- EC50 ([2]; read-out: LE_1b (EC50, range)): 1.01 to 5 nM

Compound: CC[C@@H]1OCCC/C=C\[C@@H]2C[C@@]2(C(=O)NS(=O)(=O)C2(C)CC2)NC(=O)[C@@H]2C[C@@H](Oc3ncc(OC)c4ccccc34)CN2C(=O)[C@H]1NC(=O)OC(C)(C)C(F)(F)F [Compound 1011]
- EC50 ([1]; read-out: LE_1a (EC50, range)): 0.51 to 1 nM
- EC50 ([2]; read-out: LE_1b (EC50, range)): 0.51 to 1 nM

Compound: CC[C@@H]1O[C@H](C)CC/C=C\[C@@H]2C[C@@]2(C(=O)NS(=O)(=O)C2(CF)CC2)NC(=O)[C@@H]2C[C@@H](Oc3nccc4cc(OC)c(F)cc34)CN2C(=O)[C@H]1NC(=O)OC(C)(C)C(F)(F)F [Compound 1012]
- EC50 ([1]; read-out: LE_1a (EC50, range)): 1.01 to 5 nM
- EC50 ([2]; read-out: LE_1b (EC50, range)): 1.01 to 5 nM

Compound: CC[C@@H]1O[C@H](C)CC/C=C\[C@@H]2C[C@@]2(C(=O)NS(=O)(=O)C2(CF)CC2)NC(=O)[C@@H]2C[C@@H](Oc3nc(OC)cc4cc(OC)ccc34)CN2C(=O)[C@H]1NC(=O)OC(C)(C)C(F)(F)F [Compound 1013, 1,1,1-trifluoro-2-methylpropan-2-yl ((2R,6S,7S,9R,13aS,14aR,16aS,Z)-2-((3,6-dimethoxyisoquinolin-1-yl)oxy)-7-ethyl-14a-(((1-(fluoromethyl)cyclopropyl)sulfonyl)carbamoyl)-9-methyl-5,16-dioxo-2,3,5,6,7,9,10,11,13a,14,14a,15,16,16a-tetradecahydro-1H-cyclopropa[i]pyrrolo[1,2-e][1,5,8]oxadiazacyclopentadecin-6-yl)carbamate]
- EC50 ([1]; read-out: LE_1a (EC50, range)): 1.01 to 5 nM
- EC50 ([2]; read-out: LE_1b (EC50, range)): 1.01 to 5 nM

Compound: CC[C@@H]1O[C@H](C)CC/C=C\[C@@H]2C[C@@]2(C(=O)NS(=O)(=O)C2(CF)CC2)NC(=O)[C@@H]2C[C@@H](Oc3ncc(OC)c4ccccc34)CN2C(=O)[C@H]1NC(=O)OC(C)(C)C(F)(F)F [Compound 1014]
- EC50 ([1]; read-out: LE_1a (EC50, range)): 1.01 to 5 nM
- EC50 ([2]; read-out: LE_1b (EC50, range)): 1.01 to 5 nM
